# Experimental data published in patent US7851474B2, “Dipiperazinyl ketones and related analogues” (Neurogen Corporation, priority 2005, dated 2010).
# Target: T1, chimeric human H3 receptor (Homo sapiens, UniProt Q9Y5N1, E19D)
# T1 construct: made in house; host or cells: Sf9 insect cells (baculovirus infection); P2 membrane preparation
# Experiment: Chimeric human H3 receptor GTP binding assay (agonist-stimulated GTP-gamma35S binding, Example 7)
# Format: biochemical
# Conditions: not given
# Summary of the method: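 IC50 values come from non-linear regression of dose-response curves of filter-bound GTP-gamma^35S, counted by scintillation. Membranes were from infected Sf9 cells carrying receptor plus G-protein subunits, 35 μg/tube, with 10 μM GDP present.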
# T1 sequence (Q9Y5N1 with tags, fused parts or gaps E19D): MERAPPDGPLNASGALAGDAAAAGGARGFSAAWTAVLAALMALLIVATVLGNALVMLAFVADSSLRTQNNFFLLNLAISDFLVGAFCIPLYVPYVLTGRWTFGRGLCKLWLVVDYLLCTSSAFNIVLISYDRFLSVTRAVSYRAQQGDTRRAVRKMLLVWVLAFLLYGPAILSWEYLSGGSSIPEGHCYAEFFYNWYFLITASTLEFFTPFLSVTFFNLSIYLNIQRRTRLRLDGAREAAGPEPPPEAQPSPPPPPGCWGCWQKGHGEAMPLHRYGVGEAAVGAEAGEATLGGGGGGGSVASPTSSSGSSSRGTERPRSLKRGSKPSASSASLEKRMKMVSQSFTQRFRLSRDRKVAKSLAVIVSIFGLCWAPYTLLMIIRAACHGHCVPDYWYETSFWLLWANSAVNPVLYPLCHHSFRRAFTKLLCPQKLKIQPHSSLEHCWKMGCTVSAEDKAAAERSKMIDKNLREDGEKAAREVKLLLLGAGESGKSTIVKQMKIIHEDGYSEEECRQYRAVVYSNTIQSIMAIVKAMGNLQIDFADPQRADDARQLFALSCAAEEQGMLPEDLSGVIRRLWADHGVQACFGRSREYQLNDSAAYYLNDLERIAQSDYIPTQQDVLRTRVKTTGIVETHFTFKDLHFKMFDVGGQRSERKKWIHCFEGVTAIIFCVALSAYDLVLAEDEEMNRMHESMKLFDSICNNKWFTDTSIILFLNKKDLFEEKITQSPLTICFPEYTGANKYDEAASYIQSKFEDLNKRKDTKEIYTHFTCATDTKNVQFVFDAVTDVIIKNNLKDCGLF
row,SMILES,Ki [nM]
1,"CCC(C)N1CCN(C(=O)CN2CCN(c3ccccc3C)CC2)CC1 (stereo not shown) [Compound 868, 1-sec-butyl-4-{[4-(2-methylphenyl)piperazin-1-yl]acetyl}piperazine]",< 1000

# Same assay, conditions: Table II "Ki", symbol "*": Ki in the assay of Example 7; read-out: Ki
row,Ki [nM],SMILES
1,< 1000,"Cc1ccc(-c2cnc(N3CCN(CC(=O)N4CCN(C5CCC5)CC4)CC3)cn2)cc1 [Compound 925, 2-{4-[2-(4-cyclobutylpiperazin-1-yl)-2-oxoethyl]piperazin-1-yl}-5-(4-methylphenyl)pyrazine]"
2,< 1000,"COc1ccc(N2CCN(CC(=O)N3CCN(C4CCCCC4)CC3)CC2)cc1 [Compound 823, 1-cyclohexyl-4-{[4-(4-methoxyphenyl)piperazin-1-yl]acetyl}piperazine]"
3,< 1000,"CCCCc1ccc(-c2cnc(N3CCN(CC(=O)N4CCN(C5CCC5)CC4)CC3)cn2)cc1 [Compound 901, 2-(4-butylphenyl)-5-{4-[2-(4-cyclobutylpiperazin-1-yl)-2-oxoethyl]piperazin-1-yl}pyrazine]"
4,< 1000,"Cc1ccc(N2CCN(CC(=O)N3CCN(C4CCCCC4)CC3)CC2)cc1 [Compound 824, 1-cyclohexyl-4-{[4-(4-methylphenyl)piperazin-1-yl]acetyl}piperazine]"
5,< 1000,"COc1cccc(-c2cnc(N3CCN(CC(=O)N4CCN(C5CCC5)CC4)CC3)cn2)c1 [Compound 933, 2-{4-[2-(4-cyclobutylpiperazin-1-yl)-2-oxoethyl]piperazin-1-yl}-5-(3-methoxyphenyl)pyrazine]"
6,< 1000,"Cc1cc(-c2cnc(N3CCN(CC(=O)N4CCN(C5CCC5)CC4)CC3)cn2)ccc1F [Compound 923, 2-{4-[2-(4-cyclobutylpiperazin-1-yl)-2-oxoethyl]piperazin-1-yl}-5-(4-fluoro-3-methylphenyl)pyrazine]"
7,< 1000,"CC(C)c1ccc(-c2cnc(N3CCN(CC(=O)N4CCN(C5CCC5)CC4)CC3)cn2)cc1 [Compound 927, 2-{4-[2-(4-cyclobutylpiperazin-1-yl)-2-oxoethyl]piperazin-1-yl}-5-(4-isopropylphenyl)pyrazine]"

# Same assay, conditions: Table II, "*" in Ki; assay of Example 7; read-out: Ki
row,Ki [nM],SMILES
1,< 1000,"COC[C@H]1CCCN1C(=O)c1ccc(N2CCN(CC(=O)N3CCN(C4CCC4)CC3)CC2)cc1 [Compound 767, 1-cyclobutyl-4-{[4-(4-{[(2R)-2-(methoxymethyl)pyrrolidin-1-yl]carbonyl}phenyl)piperazin-1-yl]acetyl}piperazine]"
2,< 1000,"O=C(CN1CCN(c2ccc(-c3ccc(C(F)(F)F)cc3)cc2)CC1)N1CCN(C2CCC2)CC1 [Compound 606, 1-cyclobutyl-4-({4-[4′-(trifluoromethyl)biphenyl-4-yl]piperazin-1-yl}acetyl)piperazine]"
3,< 1000,"O=C(CN1CCN(c2ccc(-c3cccc(F)c3F)cc2)CC1)N1CCN(C2CCC2)CC1 [Compound 667, 1-cyclobutyl-4-{[4-(2′,3′-difluorobiphenyl-4-yl)piperazin-1-yl]acetyl}piperazine]"
4,< 1000,"O=C(CN1CCN(c2ccc(-c3ccccc3F)cc2)CC1)N1CCN(C2CCC2)CC1 [Compound 707, 1-cyclobutyl-4-{[4-(2′-fluorobiphenyl-4-yl)piperazin-1-yl]acetyl}piperazine]"

# Same assay, conditions: Table II; assay of Example 7; "*" in Ki; read-out: Ki
row,Ki [nM],SMILES
1,< 1000,"CC(C)c1cccc(-c2ccc(N3CCN(CC(=O)N4CCN(C5CCC5)CC4)CC3)nn2)c1 [Compound 1013, 3-{4-[2-(4-cyclobutylpiperazin-1-yl)-2-oxoethyl]piperazin-1-yl}-6-(3-isopropylphenyl) pyridazine]"
2,< 1000,"CCOc1ccccc1-c1ccc(N2CCN(CC(=O)N3CCN(C4CCC4)CC3)CC2)nn1 [Compound 1043, 3-{4-[2-(4-cyclobutylpiperazin-1-yl)-2-oxoethyl]piperazin-1-yl}-6-(2-ethoxyphenyl)pyridazine]"
3,< 1000,"COc1ccc(C(C)C)cc1-c1cnc(N2CCN(CC(=O)N3CCN(C4CCC4)CC3)CC2)cn1 [Compound 952, 2-{4-[2-(4-cyclobutylpiperazin-1-yl)-2-oxoethyl]piperazin-1-yl}-5-(5-isopropyl-2-methoxyphenyl)pyrazine]"
4,< 1000,"COc1ccc(-c2ccc(-c3cnc(N4CCN(CC(=O)N5CCN(C6CCC6)CC5)CC4)cn3)cc2)cc1 [Compound 939, 2-{4-[2-(4-cyclobutylpiperazin-1-yl)-2-oxoethyl]piperazin-1-yl}-5-(4′-methoxybiphenyl-4-yl)pyrazine]"
5,< 1000,"N#Cc1ccc(-c2cccc(N3CCN(CC(=O)N4CCN(C5CCC5)CC4)CC3)c2)cc1 [Compound 1065, 3′-{4-[2-(4-cyclobutylpiperazin-1-yl)-2-oxoethyl]piperazin-1-yl}biphenyl-4-carbonitrile]"
6,< 1000,"COc1ccc(-c2cnc(N3CCN(CC(=O)N4CCN(C5CCC5)CC4)CC3)cn2)cc1C [Compound 948, 2-{4-[2-(4-cyclobutylpiperazin-1-yl)-2-oxoethyl]piperazin-1-yl}-5-(4-methoxy-3-methylphenyl)pyrazine]"
7,< 1000,"CN(C)c1cccc(-c2cnc(N3CCN(CC(=O)N4CCN(C5CCC5)CC4)CC3)cn2)c1 [Compound 993, 3-(5-{4-[2-(4-cyclobutylpiperazin-1-yl)-2-oxoethyl]piperazin-1-yl}pyrazin-2-yl)-N,N-dimethylaniline]"
8,< 1000,"Cc1ccc(-c2ccc(N3CCN(CC(=O)N4CCN(C5CCC5)CC4)CC3)nn2)c(F)c1 [Compound 1007, 3-{4-[2-(4-cyclobutylpiperazin-1-yl)-2-oxoethyl]piperazin-1-yl}-6-(2-fluoro-4-methylphenyl)pyridazine]"

# The next lines start with the molecule.
row,SMILES,Ki [nM]
1,"CCCNC(=O)c1cccc(N2CCN(CC(=O)N3CCN(C4CCC4)CC3)CC2)c1 [Compound 1072, 3-{4-[2-(4-cyclobutylpiperazin-1-yl)-2-oxoethyl]piperazin-1-yl}-N-propylbenzamide]",< 1000
2,"CCN(C(=O)c1ccc(N2CCN(CC(=O)N3CCN(C4CCC4)CC3)CC2)cc1)C1CCCCC1 [Compound 1129, 4-{4-[2-(4-cyclobutylpiperazin-1-yl)-2-oxoethyl]piperazin-1-yl}-N-cyclohexyl-N-ethylbenzamide]",< 1000

# Same assay, conditions: assay of Example 7; "*" in Ki of Table II; read-out: Ki
row,Ki [nM],SMILES
1,< 1000,"O=C(NC1CCN(CC(=O)N2CCN(C3CCC3)CC2)C1)c1ccccc1 (stereo not shown) [Compound 1253, N-{1-[2-(4-cyclobutylpiperazin-1-yl)-2-oxoethyl]pyrrolidin-3-yl}benzamide]"
2,< 1000,"CC(=O)c1ccc(N2C[C@@H](C)N(CC(=O)N3CCN(C4CCC4)CC3)[C@@H](C)C2)cc1 [Compound 1270, rel-1-(4-{(3R,5S)-4-[2-(4-cyclobutylpiperazin-1-yl)-2-oxoethyl]-3,5-dimethylpiperazin-1-yl}phenyl)ethanone]"
3,< 1000,"O=C(NC1CCC1)c1ccc(N2CCN(CC(=O)N3CCN(C4CCC4)CC3)CC2)nc1 [Compound 1268, N-cyclobutyl-6-{4-[2-(4-cyclobutylpiperazin-1-yl)-2-oxoethyl]piperazin-1-yl}nicotinamide]"
4,< 1000,"CC(C)NC(=O)c1ccc(N2CCN(CC(=O)N3CCN(C4CCC4)CC3)CC2)cc1 [Compound 1140, 4-{4-[2-(4-cyclobutylpiperazin-1-yl)-2-oxoethyl]piperazin-1-yl}-N-isopropylbenzamide]"
5,< 1000,CC(C)N1CN(c2ccccc2)C2(CCN(CC(=O)N3CCN(C4CCC4)CC3)CC2)C1=O [Compound 1191]
6,< 1000,"O=C(NC1CCN(CC(=O)N2CCN(C3CCC3)CC2)CC1)C1CCCCC1 [Compound 1227, N-{1-[2-(4-cyclobutylpiperazin-1-yl)-2-oxoethyl]piperidin-4-yl} cyclohexanecarboxamide]"
7,< 1000,"O=C(NCC1CCCCC1)c1ccc(N2CCN(CC(=O)N3CCN(C4CCC4)CC3)CC2)nc1 [Compound 1186, 6-{4-[2-(4-cyclobutylpiperazin-1-yl)-2-oxoethyl]piperazin-1-yl}-N-(cyclohexylmethyl) nicotinamide]"
8,< 1000,"O=C(NCC1CC1)c1ccc(N2CCN(CC(=O)N3CCN(C4CCC4)CC3)CC2)nc1 [Compound 1176, 6-{4-[2-(4-cyclobutylpiperazin-1-yl)-2-oxoethyl]piperazin-1-yl}-N-(cyclopropylmethyl) nicotinamide]"

# Same assay, conditions: assay of Example 7; symbol * in column headed Ki of Table II; read-out: Ki
row,Ki [nM],SMILES
1,< 1000,"O=C(CN1CCN(c2ccc(-c3ccc(Cl)c(F)c3)cc2)CC1)N1CCN(C2CCC2)CC1 [Compound 343, 1-(4′-chloro-3′-fluorobiphenyl-4-yl)-4-[2-(4-cyclobutylpiperazin-1-yl)-2-oxoethyl]piperazine]"
2,< 1000,"CC(=O)c1cnc(N2CCN(CC(=O)N3CCN(C4CCC4)CC3)CC2)cn1 [Compound 362, 1-(5-{4-[2-(4-cyclobutylpiperazin-1-yl)-2-oxoethyl]piperazin-1-yl}pyrazin-2-yl)ethanone]"

# The next lines start with the molecule.
row,SMILES,Ki [nM]
1,"CC(C)(C)C(=O)c1ccc(N2CCN(CC(=O)N3CCN(C4CCCC4)CC3)CC2)cc1 [Compound 326, 1-(4-{4-[2-(4-cyclopentylpiperazin-1-yl)-2-oxoethyl]piperazin-1-yl}phenyl)-2,2-dimethylpropan-1-one]",< 1000
2,"CC(C)N1C(=O)C2(CCN(CC(=O)N3CCN(C4CCC4)CC3)CC2)c2ccccc21 [Compound 422, 1′-[2-(4-cyclobutylpiperazin-1-yl)-2-oxoethyl]-1-isopropylspiro[indole-3,4′-piperidin]-2(1H)-one]",< 1000
3,"CC1CCN(C2CCN(CC(=O)N3CCN(C4CCC4)CC3)CC2)CC1 [Compound 428, 1′-[2-(4-cyclobutylpiperazin-1-yl)-2-oxoethyl]-4-methyl-1,4′-bipiperidine]",< 1000
4,"CC(=O)c1ccc(N2CCN(CC(=O)N3CCN(C4CCC4)CC3)[C@@H](C)C2)cc1 [Compound 307, 1-(4-{4-[2-(4-cyclobutylpiperazin-1-yl)-2-oxoethyl]-3-methylpiperazin-1-yl}phenyl)ethanone]",< 1000
5,"Cc1cc(N2CCN(CC(=O)N3CCN(C(C)C)CC3)CC2)ccc1Cl [Compound 353, 1-(4-chloro-3-methylphenyl)-4-[2-(4-isopropylpiperazin-1-yl)-2-oxoethyl]piperazine]",< 1000
